Data taken from patent US10865216B2, “Tricyclic Gyrase inhibitors” (MERCK SHARP & DOHME CORP., priority 2012, dated 2020).
≈ marks a conversion by molar mass, not a printed value. Where two headings read alike, the source gives them in different places. Blank lines part the entries; values can stand above or below the compound they belong to.

Legend:
[1] = system: S. aureus ATCC 13709; test: MIC, S. aureus ATCC 13709; assay type: cell-based; conditions: for MIC: Staphylococcus aureus, read-out: SA MIC
[2] = system: E. coli ATCC 25922; test: MIC, E. coli ATCC 25922; assay type: cell-based; conditions: for EC8 MIC / MIC: EC8 not defined; for EC MIC: Table 13, L = NH; for MIC: Escherichia coli, read-out: EC8 MIC
[3] = Table 11, compounds wherein L = CH2
[4] = Table 12, Z is C and connected to R4
[5] = ATCC13709, Table 15, R2 is joined to R4
[6] = ATCC25922, Table 15, R2 is joined to R4
[7] = ATCC13709, Table 16, new R4 substituents
[8] = ATCC25922, Table 16, new R4 substituents

Compound: CNc1cc(F)cc2c1[nH]c1nc(Cc3cnc(C)nc3)nc(N3CC[C@@]4(C[C@H]4N)C3)c12
SA MIC [1, 3]: ≤ 0.5 µg/mL
EC8 MIC ([2]; Table 11, L = CH2): 2 µg/mL

Compound: CNc1cc(F)cc2c1[nH]c1nc(Cc3cnc(C)nc3)nc(N3CC[C@@]4(C[C@@H]4N)C3)c12
SA MIC [1, 3]: 1 µg/mL
EC8 MIC ([2]; Table 11, L = CH2): 8 µg/mL

Compound: CNc1cc(F)cc2c1[nH]c1nc(Cc3cnc(C)nc3)nc(N3CC4(CCC4N)C3)c12 (centres unmarked)
SA MIC [1, 3]: ≤ 0.5 µg/mL
EC8 MIC ([2]; Table 11, L = CH2): 1 µg/mL

Compound: CNc1cc(F)c2c3c1[nH]c1nc(Oc4cnc(C)nc4)nc(c13)-c1ccccc1NC2
SA MIC [1, 4]: ≤ 0.5 µg/mL
EC8 MIC [2, 4]: ≤ 0.5 µg/mL

Compound: CNc1cc(F)c2c3c1[nH]c1nc(Oc4cnc(C)nc4)nc(c13)N1CCC[C@H]1CNC2
SA MIC [1, 4]: 16 µg/mL
EC8 MIC [2, 4]: > 16 µg/mL

Compound: CNc1cc(F)c2c3c1[nH]c1nc(Oc4cnc(C)nc4)nc(c13)NC(=N)NC2
SA MIC [1, 4]: 4 µg/mL
EC8 MIC [2, 4]: 8 µg/mL

Compound: CNc1cc(F)c2c3c1[nH]c1nc(Oc4cnc(C)nc4)nc(c13)-c1ccc(Cl)cc1NC2
SA MIC [1, 4]: ≤ 0.5 µg/mL
EC8 MIC [2, 4]: 4 µg/mL

Compound: CNc1cc(F)c2c3c1[nH]c1nc(Oc4cncnc4)nc(c13)-c1ccccc1NC2
SA MIC [1, 4]: ≤ 0.5 µg/mL
EC8 MIC [2, 4]: > 16 µg/mL

Compound: CNc1cc(F)c2c3c1[nH]c1nc(Oc4cnc(N)nc4)nc(c13)-c1ccccc1NC2
SA MIC [1, 4]: ≤ 0.5 µg/mL
EC8 MIC [2, 4]: > 16 µg/mL

Compound: CNc1cc(F)cc2c1[nH]c1nc3nc(c12)NCCCCCCNC(=O)c1cncc(c1)O3
MIC [1, 5]: ≤ 0.5 µg/mL
MIC [2, 6]: 1 µg/mL (≈ 2.22 µM)

Compound: CNc1cc(F)cc2c1[nH]c1nc3nc(c12)NCCCCCCNC(=O)CSc1ncc(cn1)O3
MIC [1, 5]: ≤ 0.5 µg/mL
MIC [2, 6]: > 16 µg/mL

Compound: CNc1cc(F)cc2c1[nH]c1nc3nc(c12)NCCCCNC(=O)CSc1ncc(cn1)O3
MIC [1, 5]: ≤ 0.5 µg/mL
MIC [2, 6]: 2 µg/mL (≈ 4.27 µM)

Compound: CNc1cc(F)cc2c1[nH]c1nc3nc(c12)N[C@@H](CN)COCCCNC(=O)CSc1ncc(cn1)O3
MIC [1, 5]: 2 µg/mL (≈ 3.79 µM)
MIC [2, 6]: 8 µg/mL (≈ 15.2 µM)

Compound: CNc1cc(F)cc2c1[nH]c1nc(Oc3cnc4ccoc4c3)nc(N3CCC(C)(CN)C3)c12 (centres unmarked)
MIC [1, 7]: ≤ 0.5 µg/mL
MIC [2, 8]: 0.5 µg/mL (≈ 1.08 µM)

Compound: CNc1cc(F)cc2c1[nH]c1nc(Oc3cnc(C)nc3)nc(N3CCC(C)(N)C3)c12 (centres unmarked)
MIC [1, 7]: ≤ 0.5 µg/mL
MIC [2, 8]: ≤ 0.5 µg/mL

Compound: CNc1cc(F)cc2c1[nH]c1nc(Oc3cnc(C)nc3)nc(N3CCC(F)(CN)C3)c12 (centres unmarked)
MIC [1, 7]: ≤ 0.5 µg/mL
MIC [2, 8]: ≤ 0.5 µg/mL

Results, then the compound that gave them:

SA MIC [1, 3]: ≤ 0.5 µg/mL
EC8 MIC ([2]; Table 11, L = CH2): 1 µg/mL
Compound: CNc1cc(F)cc2c1[nH]c1nc(Cc3cncnc3)nc(N3C[C@H](N)C4(CC4)C3)c12

SA MIC [1, 3]: ≤ 0.5 µg/mL
EC8 MIC ([2]; Table 11, L = CH2): 1 µg/mL
Compound: CNc1cc(F)cc2c1[nH]c1nc(Cc3cnc(C)nc3)nc(N3CC4CC(N)C4C3)c12 (centres unmarked)

SA MIC ([1]; Table 13, L = NH): ≤ 0.5 µg/mL
EC MIC [2]: ≤ 0.5 µg/mL
Compound: CNc1cc(F)cc2c1[nH]c1nc(Nc3cnc(C)nc3)nc(N3C[C@H]4CC3C[C@H]4N)c12

SA MIC ([1]; Table 13, L = NH): ≤ 0.5 µg/mL
EC MIC [2]: 1 µg/mL
Compound: CNc1cc(F)cc2c1[nH]c1nc(Nc3cnc4c(c3)nnn4C(C)C)nc(N3C[C@H]4CC3C[C@H]4N)c12

SA MIC ([1]; Table 13, L = NH): ≤ 0.5 µg/mL
EC MIC [2]: ≤ 0.5 µg/mL
Compound: CNc1cc(F)cc2c1[nH]c1nc(Nc3cccnc3)nc(N3C[C@H]4CC3C[C@H]4N)c12

SA MIC ([1]; Table 13, L = NH): ≤ 0.5 µg/mL
EC MIC [2]: ≤ 0.5 µg/mL
Compound: CNc1cc(F)cc2c1[nH]c1nc(Nc3cnc4ccnn4c3)nc(N3C[C@H]4CC3C[C@H]4N)c12

SA MIC ([1]; Table 13, L = NH): ≤ 0.5 µg/mL
EC MIC [2]: 1 µg/mL
Compound: CCOC(=O)c1csc(Nc2nc(N3C[C@H]4CC3C[C@H]4N)c3c(n2)[nH]c2c(NC)cc(F)cc23)n1

SA MIC ([1]; Table 13, L = NH): ≤ 0.5 µg/mL
EC MIC [2]: 16 µg/mL
Compound: CNc1cc(F)cc2c1[nH]c1nc(Nc3cnc4nccnc4c3)nc(N3C[C@H]4CC3C[C@H]4N)c12

MIC [1, 7]: ≤ 0.5 µg/mL
MIC [2, 8]: 8 µg/mL (≈ 17.8 µM)
Compound: CNc1cc(F)cc2c1[nH]c1nc(Oc3cnc(C)nc3)nc(N3CCC(C4CNC4)C3)c12 (centres unmarked)
